In this assay the test system is rat mixed hippocampal cultures. Nature of the assay: 3-NP neurotoxicity assay, MTT viability, rat mixed hippocampal cultures. The class given is cell-based. The conditions noted are these: 1 h preincubation, test concentration (10 μM); for inhibition at 10 µM: Rattus norvegicus. The protocol: For example, a cell viability assay can be used in a preliminary screen on a large series of compounds each of which is tested at a fixed concentration. In some embodiments, mixed hippocampal cell cultures are prepared as described in, e.g., Haughey et al. (1999), J Neurochem, 73(4):1363-1374, and Haughey et al (2004), J Neurosci, 24(1):257-268. Subsequently, the cultures are pretreated for one hour in the presence of a candidate neuroprotective agent and then incubated with a cytotoxic agent for about 18 hours. Examples of cytotoxic agents include, but are not limited to, oxidative stressors (e.g., 3-nitropropionic acid (3-NP) or H2O2), excitatory amino acids (e.g., kainate), or neurotoxic proteins (e.g., Hiv Tat, or Aβ peptides). […] The level of protection (“percent protection”) provided by the test compound at a given test concentration in vitro can be expressed as: […]
A variety of methods for determining cell viability may be used. In some embodiments, cell viability is assessed based on the “MTT” assay method described in Mosmann (1983), J Immunol Methods, 65(1-2):55-63, or a variant thereof. This assay is based on the ability of a mitochondrial dehydrogenase enzyme from viable cells to cleave the tetrazolium rings of the pale yellow MTT and form dark blue formazan crystals, which are trapped in cells and readily quantified by ELISA spectrophotometry.
We sought to evaluate the protective efficacy of a number of modified terpenoid compounds against the against many different neurotoxins, ranging from the chemotoxic 6-OHDA, NMDA, 3-nitropropionic acid (3-NP), and viral proteins such as Tat and gp120. Thus, we established an in vitro neuroprotection assay using rat mixed hippocampal cultures, in which we evaluated the protective efficacy of neuroprotective compounds disclosed herein. The oxidative stressor 3-NP was used to elicit toxicity in the rat hippocampal cultures to mimic the oxidative damage, reactive oxygen species production and ensuing neurodegeneration resulting from HIV infection. Another measure of neurotoxicity which results from HIV infection was evaluated by exposure of the hippocampal cultures to HIV-1 Tat (Li et al (2005), Neurotox Res, 8(1-2): 119-134).
Rat mixed hippocamal neuronal cultures were generated from freshly dissected rat hippocampi (embryonic day 18) in neurobasal media containing 5% fetal bovine serum and 2% B27 supplement. The cells were plated into 96 well plates at a density of 4×10^5 cells/mL and routinely used on days 11-14 following culturing. Cell viability was assessed with MTT [3-(4,5-dimethylthiazol-2-yl)-2,5-diphenyltetrazolium bromide] assay. The MTT assay is based on the ability of a mitochondrial dehydrogenase enzyme from viable cells to cleave the tetrazolium rings of the pale yellow MTT and form dark blue formazan crystals. See Mosmann (1983), J Immunol Methods, 65(1-2):55-63. These crystals are largely impermeable to cell membranes, and thus accumulate within healthy cells. The resultant formazan precipitates are solubilized with DMSO and read on a multiwell scanning spectrophotometer (ELISA reader). The number of surviving cells is directly proportional to the level of the formazan product created.
Mixed hippocampal cultures were incubated with 3-NP (0.5-10 mM) for 18 hours and then assessed for viability using an MTT assay.
Cultures were preincubated with GPI 1046 or Resveratrol for one hour prior to an 18 hour exposure to 3 mM 3-NP. […] The same neuroprotective compounds were evaluated for efficacy against HIV-1 Tat protein toxicity using the same 1 hour preincubation protocol.

The mark [1] stands for this setting: Table 2, vs 3 mM 3-NP 18 h, read-out: % Protection.
[2] abbreviates: Table 3, 3 mM 3-NP 18 h, read-out: % Protection vs 3-NP.

Molecules are shown by their SMILES. Read-outs that look alike come from different tables or passages of the source.

Consider `CC(=O)O[C@@H]1CC2C(C)(C)C(=O)C3OC3[C@]2(C)C2CC[C@@]3(C)C(=CC(=O)O[C@@H]3c3ccoc3)[C@@]21C` (stereo partly drawn) [1 (2)alpha- EPOXYDEOXYDIHYDRO- GEDUNIN, 1 (2)alpha-EPOXYDEOXYDIHYDROGEDUNIN], for which the inhibition at 10 µM under setting [1] was determined as 14%.

In the case of `CC1(C)C(=O)[C@@H]2O[C@@H]2[C@@]2(C)C1C[C@@H](O)[C@]1(C)C2CC[C@@]2(C)[C@H](c3ccoc3)OC(=O)C3OC321` (stereo partly drawn) [1,2alpha- EPOXYDEACET[…], 1,2alpha-EPOXYDEACETOXYDIHYDROGEDUNIN], the “% Protection” value (Table 2, vs 3 mM 3-NP 18 h) is reported as 25%.

For the compound `CC1(C)C2CC(=O)[C@]3(C)C(CC[C@@]4(C)[C@H](c5ccoc5)OC(=O)C5OC543)[C@@]2(C)[C@@H](O)C[C@H]1O` (stereo partly shown) [1,3-DIDEACETYL-7-DEACETOXY-7-OXOKHIVORIN], under setting [2], the inhibition at 10 µM was 15%. For the same compound, where the note is “Table 2, vs 3 mM 3-NP 18 h”, the “% Protection” value was 15%.

Regarding `CC(=O)O[C@@H]1CC2C(C)(C)[C@H](O)C[C@H](O)[C@]2(C)C2CC[C@]3(C)[C@@H](c4ccoc4)OC(=O)[C@H]4O[C@]43[C@@]21C` (stereo partly shown) [1,3-DIDEACETYLKHIVORIN], the inhibition at 10 µM under setting [1] was 129%.

In the case of `CC1(C)C2CC(=O)[C@]3(C)C(CC[C@@]4(C)[C@H](c5ccoc5)OC(=O)[C@H]5O[C@]543)[C@@]2(C)C(=O)C[C@H]1O` (stereo partly shown) [1,7-DIDEACETOXY-1,7-DIOXO-3-DEACETYLKHIVORIN], the inhibition at 10 µM under setting [2] was 15%. The “% Protection” value (Table 2, vs 3 mM 3-NP 18 h) was found to be 15%.

For the compound `CC(=O)OC1CC2C(C)(C)CCC(=O)[C@]2(C)C2CC[C@@]3(C)[C@H](c4ccoc4)OC(=O)C4OC43[C@]12C` (stereo partly shown) [2,3-DIHYDROISOGEDUNIN], the “% Protection” value (Table 2, vs 3 mM 3-NP 18 h) is listed as 44%.

In the case of `CC(=O)O[C@H]1C[C@@H](O)C(C)(C)[C@@H]2C[C@@H](OC(C)=O)[C@]3(C)[C@H](CC[C@@]4(C)[C@@H](c5ccoc5)OC(=O)[C@H]5O[C@@]534)[C@@]12C` [3-DEACETYLKHIVORIN], the “% Protection vs 3-NP” value (Table 3, 3 mM 3-NP 18 h) is given as 7%.

For `CC(=O)O[C@H]1CC[C@@]2(C)C(C[C@@H](OC(C)=O)[C@@]3(C)C4=CC(=O)O[C@@H](c5ccoc5)[C@]4(C)CCC23)C1(C)C` (stereo partly drawn) [3-DEOXO-3beta-ACETOXYDEOXYDIHYDROGEDUNIN], the inhibition at 10 µM under setting [1] is 56%.

Regarding `CC(=O)O[C@@H]1CC2C(C)(C)[C@H](O)C=C[C@]2(C)C2CC[C@]3(C)C(=CC(=O)O[C@H]3c3ccoc3)[C@@]21C` (stereo partly drawn) [3-alpha- HYDROXYDEOXYGEDININ, 3-alpha-HYDROXYDEOXYGEDININ], the “% Protection” value (Table 2, vs 3 mM 3-NP 18 h) stood at 28%.

For the compound `CC(=O)O[C@@H]1CC[C@@]2(C)C(C[C@@H](OC(C)=O)[C@@]3(C)C4=CC(=O)O[C@@H](c5ccoc5)[C@]4(C)CCC23)C1(C)C` (stereo partly drawn) [3alpha- ACETOXYDIHYDRODEOXY- GEDUNIN, 3alpha-ACETOXYDIHYDRODEOXYGEDUNIN], under setting [1], the inhibition at 10 µM is 151%.

As for `C=C1C2CC[C@]3(C)[C@@H](c4ccoc4)OC(=O)CC13O[C@H]1CC(O)C(C)(C)C(CC(=O)OC)[C@@]21C` (stereo partly drawn) [3alpha-HYDROXY-3-DEOXYANGOLENSIC ACID METHYL ESTER], the inhibition at 10 µM under setting [1] came out at 35%.

In the case of `CC(=O)O[C@H]1CC[C@@]2(C)C(C[C@H](OC(C)=O)[C@@]3(C)C4=CC(=O)OC(c5ccoc5)[C@]4(C)CCC23)C1(C)C` (stereo partly drawn) [3beta,7beta-DIACETOXYDEOXODEACETOXYDEOXYDIHYDROGEDUNIN], the inhibition at 10 µM under setting [1] was determined as 61%.

`CC(=O)O[C@H]1CC[C@]2(C)[C@H]3CC[C@@]4(C)[C@H](c5ccoc5)OC(=O)[C@H]5O[C@]54[C@]3(C)[C@H](OC(C)=O)C[C@H]2C1(C)C` [3beta- ACETOXYDEOXODIHYDRO- GEDUNIN, 3beta-ACETOXYDEOXODIHYDROGEDUNIN]: the inhibition at 10 µM by setting is: under setting [1], 39%; under setting [2], 39%.

Regarding `CC(=O)OC1CC2C(C)(C)[C@@H](O)CC[C@]2(C)C2CC[C@]3(C)[C@H](c4ccoc4)OC(=O)[C@H]4O[C@]43[C@]12C` (stereo partly drawn) [3beta- HYDROXYDEOXODIHYDRO- GEDUNIN, 3beta-HYDROXYDEOXODIHYDROGEDUNIN], under setting [1], the inhibition at 10 µM was found to be 82%.

As for `C=C1C2CC[C@@]3(C)[C@H](c4ccoc4)OC(=O)C[C@]13O[C@H]1C[C@@H](OC(C)=O)C(C)(C)[C@H](CC(=O)OC)[C@@]21C` [3beta-ACETOXYDEOXYANGOLENSIC ACID, METHYL ESTER], under setting [1], the inhibition at 10 µM is 128%.

For `CC1(C)C2CC(=O)[C@]3(C)C(CC[C@@]4(C)[C@H](c5ccoc5)OC(=O)[C@H]5O[C@]543)[C@@]2(C)C=C[C@@H]1O` (stereo partly drawn) [3beta-HYDROXYDEOXYDESACETOXY-7-OXOGEDUNIN], under setting [1], the inhibition at 10 µM came out at 30%.

As to `C=C1C2CC[C@@]3(C)[C@H](c4ccoc4)OC(=O)C[C@]13O[C@H]1CC(=O)C(C)(C)[C@H](C(O)C(=O)OC)[C@@]21C` (stereo partly shown) [6-HYDROXYANGOLENSIC ACID METHYL ESTER], the inhibition at 10 µM under setting [1] was 26% and the inhibition at 10 µM under setting [2] came to 26%.

As to `CC1(C)C(=O)C=C[C@@]2(C)C1CC(=O)[C@@]1(C)C3=CC(=O)O[C@@H](c4ccoc4)[C@]3(C)CCC12` (stereo partly shown) [7-DEACETOXY-7- OXODEOXYGEDUNIN, 7-DEACETOXY-7-OXODEOXYGEDUNIN], under setting [1], the inhibition at 10 µM was 24%.

For the compound `CC(=O)O[C@H]1C[C@@H](OC(C)=O)C(C)(C)C2CC(=O)[C@]3(C)C(CC[C@@]4(C)[C@H](c5ccoc5)OC(=O)[C@H]5O[C@]543)[C@]21C` (stereo partly shown) [7-DEACETOXY-7- OXOKHIVORIN, 7-DEACETOXY-7-OXOKHIVORIN], the inhibition at 10 µM was 36% under setting [1] and 36% under setting [2].

With `COC(=O)[C@@H]1OC(=O)C2OC23[C@@]1(C)CCC1[C@]2(C)C(CC(=O)[C@]13C)C(C)(C)[C@H](OC(C)=O)C[C@@H]2OC(C)=O` (stereo partly shown) [7-DEACETOXY-7-OXOKHIVORINIC ACID, METHYL ESTER], the “% Protection” value (Table 2, vs 3 mM 3-NP 18 h) turned out to be 42%.

`CC(=O)O[C@H]1C[C@@H](OC(C)=O)C(C)(C)C2C[C@@H](O)[C@]3(C)C(CC[C@@]4(C)[C@H](c5ccoc5)OC(=O)[C@H]5O[C@]543)[C@]21C` (stereo partly shown) [7-DEACETYLKHIVORIN]: the inhibition at 10 µM under setting [2] turned out to be 32%. In addition, the “% Protection” value (Table 2, vs 3 mM 3-NP 18 h) was 32%.

Turning to `CC(=O)O[C@H]1C[C@@H](OC(C)=O)C(C)(C)C2C[C@H](OC(C)=O)[C@]3(C)C(CC[C@@]4(C)[C@H](c5ccoc5)OC(=O)[C@H]5O[C@]543)[C@]21C` (stereo partly shown) [7-EPIKHIVORIN], under setting [1], the inhibition at 10 µM came out at 65%.

With `COC(=O)[C@@H]1OC(=O)C2OC23[C@@]1(C)CCC1[C@]2(C)C(C[C@H](O)[C@]13C)C(C)(C)[C@H](OC(C)=O)C[C@@H]2OC(C)=O` (stereo partly drawn) [7beta-HYDROXY-7-DESACETOXYKHIVORINIC ACID, METHYL ESTER], the “% Protection” value (Table 2, vs 3 mM 3-NP 18 h) is 84%.

Regarding `COC(=O)C[C@H]1C(C)(C)C2(O)OC34CC2C(=O)[C@]1(C)C3CC[C@]1(C)C4=CC(=O)O[C@H]1c1ccoc1` (stereo partly drawn) [8beta-HYDROXYCARAPIN, 3,8-HEMIACETAL], the “% Protection vs 3-NP” value (Table 3, 3 mM 3-NP 18 h) is 9%.

Consider `COC(=O)C[C@H]1C2(C)CC34OC5(C)O[C@@]6([C@H](OC(C)=O)C(OC(C)=O)[C@]7(C)C(/C(=C(/O)C(C)C)C(=O)O[C@H]7c7ccoc7)[C@@]6(O5)[C@H](OC(C)=O)[C@@]3(O)C2OC(=O)C(C)C)[C@]14C` (stereo partly shown) [BUSSEIN], for which the inhibition at 10 µM under setting [2] was 18%.

For the compound `COC(=O)C[C@H]1C(C)(C)C(=O)[C@@H]2CC3=C(CC[C@]4(C)C3=CC(=O)O[C@H]4c3ccoc3)[C@@]1(C)C2=O` [CARAPIN-8(9)-ENE], the “% Protection vs 3-NP” value (Table 3, 3 mM 3-NP 18 h) stood at 38%.

For `COC(=O)C[C@H]1C(C)(C)C(=O)[C@@H]2CC3C4=CC(=O)O[C@@H](c5ccoc5)[C@]4(C)CC[C@@H]3[C@@]1(C)C2=O` (stereo partly shown) [CARAPIN], the inhibition at 10 µM under setting [2] came out at 18%.

Take `CC1(C)C(=O)C=C[C@@]2(C)C1CC(=O)[C@]1(C)C2CC[C@@]2(C)[C@H](c3ccoc3)OC(=O)[C@H]3O[C@]321` (stereo partly shown) [DEACETOXY-7-OXOGEDUNIN]: the inhibition at 10 µM was found to be 38% under setting [1] and 38% under setting [2].

As for `CC1(C)C(=O)C=C[C@@]2(C)C1C[C@@H](O)[C@]1(C)C2CC[C@@]2(C)[C@H](c3ccoc3)OC(=O)[C@H]3O[C@]321` (stereo partly shown) [DEACETYLGEDUNIN], the inhibition at 10 µM under setting [2] amounted to 19%. Under “Table 2, vs 3 mM 3-NP 18 h”, the “% Protection” value turned out to be 19%.

The values are drawn from patent US9289412B2, “Role of limonoid compounds as neuroprotective agents” (The Johns Hopkins University, priority 2006, dated 2016).
